Results: US11639373B2, “Therapeutic and diagnostic agents for cancer” (TECHNISCHE UNIVERSITÄT MÜNCHEN, priority 2018, dated 2023)
Like-named read-outs stand apart in the source and are kept apart here. Non-standard residues stand in square brackets, D forms with d. Residues, ends and D or L forms follow the SMILES beside them. Groups on a side chain read outwards from the residue. ξ: configuration not given here. *: point of attachment. X3 = C[N+](C)(Cc1cn([C@@H](CCCNC(=N)N)C(=O)*)nn1)C[B-](F)(F)F; X2 = C[N+](C)(Cc1cn([C@@H](CCCCN)C(=O)*)nn1)C[B-](F)(F)F; DOTA = O=C(O)CN1CCN(CC(=O)O)CCN(CC(=O)*)CCN(CC(=O)O)CC1; X5 = CC(C)[C@H](C(=O)*)n1cc(C[N+](C)(C)C[B-](F)(F)F)nn1; X4 = C[N+](C)(Cc1cn(-c2ccc(C(=O)*)cc2)nn1)C[B-](F)(F)F; dTyr(3-I) = N[C@H](Cc1ccc(O)c(I)c1)C(=O)O; 2Nal = N[C@@H](Cc1ccc2ccccc2c1)C(=O)O; X1 = OCC1O[C@H](*)C(O)C(O)[C@H]1O; pS = N[C@@H](COP(=O)(O)O)C(=O)O; dNMeOrn = CN[C@H](CCCN)C(=O)O; 4Amb = NCc1ccc(C(=O)O)cc1; Mercaptoacetyl = O=C(CS)*; ξNMeOrn = CNC(CCCN)C(=O)O; 4Abz = Nc1ccc(C(=O)O)cc1; X6 = CC(=O)c1ccc(N*)cc1; Dap = NC[C@H](N)C(=O)O

Columns and labels:
human CXCR4 = target: T1, human CXCR4 (Homo sapiens, UniProt P61073); test: Competitive binding assay to human CXCR4, Jurkat cells, [125I]FC131 radioligand
T1 construct: using CXCR4 positive Jurkat human T-cell leukemia cells; endogenous in cells; host or cells: Jurkat human T-cell leukemia cells

[1] = Lipophilicity, shake flask n-octanol/PBS; format: physicochemical; conditions: Table 1d
Procedure: To a solution of app. 0.5 MBq of radiolabeled peptide in 500 μL of PBS (pH 7.4), 500 μL of octanol were added (n=6). Vials were vortexed vigorously for 3 min. To achieve quantitative phase separation, the vials were centrifuged at 14,600×g for 6 min in a Biofuge 15 (Heraeus Sepatech, Osterode, Germany). The activity concentrations in 100 μL-samples of both the aqueous and the organic phase were measured in a γ-counter. Both the partition coefficient Pow, which is defined as the molar concentration ratio of a single species A between octanol and an aqueous phase at equilibrium, and log Pow, which is an important parameter used to characterize lipophilicity of a compound, were calculated.
Internalization and cell efflux studies of the respective ligands were performed using a previously published protocol (Poschenrieder et al., First 18F-Labeled Pentixafor-Based Imaging Agent for PET Imaging of CXCR4 Expression In Vivo. 2016). The distribution coefficients of the respective ^68Ga- and […] peptides in octanol and PBS buffer were determined applying the shake flask method as described previously (Weineisen et al., Synthesis and preclinical evaluation of DOTAGA-conjugated PSMA ligands for functional imaging and endoradiotherapy of prostate cancer. EJNMMI Research. 2014; 1:1-15).
Lipophilicity was measured using the shake flask method. The logarithm of the partition coefficient P, where P is the ratio of activity distribution of the respective ^68Ga/^177Lu-labeled peptide in n-octanol and PBS are listed in Table 2.

murine CXCR4 = target: T2, murine CXCR4 (Mus musculus, UniProt P70658); test: Competitive binding assay to murine CXCR4, Eμ-Myc1080 cells, [125I]CPCR4.3 radioligand
T2 construct: The murine CXCR4 expressing cell line Ep-Myc1080; endogenous in cells; host or cells: Eμ-Myc1080 mouse B-cell lymphoma cells
Procedure: Competition studies addressing the human CXCR4 were performed using CXCR4 positive Jurkat human T-cell leukemia cells and ^125I-FC131 (^125I-2), addressing the murine CXCR4, Ep-Myc1080 mouse B-cell lymphoma cells and ^125I-CPCR4.3 (Demmer et al. A Conformationally Frozen Peptoid Boosts CXCR4 Affinity and Anti-HIV Activity. Angewandte Chemie International Edition. 2012; 51:8110-8113) as the radioligand were utilized as described previously (Poschenrieder et al., The influence of different metal-chelate conjugates of pentixafor on the CXCR4 affinity. EJNMMI research. 2016; 6:1-8).

[2] = Table 1b, 18F-labeling precursors, Jurkat cells, [^125I]FC-131, read-out: IC50 [nM] to hCXCR4
[3] = Table 1d, orn side chain modifications, read-out: IC50 [nM] to hCXCR4
[4] = Table 1b, ^natLu metal complexes, Jurkat cells, [^125I]FC-131, read-out: IC50 [nM] to hCXCR4 [^natLu]
[5] = ^natLu complexes, Jurkat cells, [^125I]FC131 0.1 nM, RT 2 h, mean ± SD (n = 3), read-out: IC50 [nM] for ^natLu-complexes and human CXCR4
[6] = Table 1b, ^natGa metal complexes, Jurkat cells, [^125I]FC-131, read-out: IC50 [nM] to hCXCR4 [^natGa]
[7] = Table 1b, ^natY metal complexes, Jurkat cells, [^125I]FC-131, read-out: IC50 [nM] to hCXCR4 [^natY]
[8] = ^natGa complexes, Jurkat cells, [^125I]FC131 0.1 nM, RT 2 h, mean ± SD (n = 3), read-out: IC50 [nM] for ^natGa-complexes and human CXCR4

T1 sequence (P61073 whole entry): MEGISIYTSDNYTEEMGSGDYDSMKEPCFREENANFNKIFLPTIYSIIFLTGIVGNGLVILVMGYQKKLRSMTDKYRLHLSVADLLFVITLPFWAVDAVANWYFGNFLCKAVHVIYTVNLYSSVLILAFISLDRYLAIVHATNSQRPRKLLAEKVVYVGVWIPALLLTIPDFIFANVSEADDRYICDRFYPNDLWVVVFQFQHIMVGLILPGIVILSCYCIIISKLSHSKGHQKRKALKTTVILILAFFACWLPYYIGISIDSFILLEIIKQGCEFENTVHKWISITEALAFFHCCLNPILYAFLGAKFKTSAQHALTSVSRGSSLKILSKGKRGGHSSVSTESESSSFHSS
T2 sequence (P70658 whole entry): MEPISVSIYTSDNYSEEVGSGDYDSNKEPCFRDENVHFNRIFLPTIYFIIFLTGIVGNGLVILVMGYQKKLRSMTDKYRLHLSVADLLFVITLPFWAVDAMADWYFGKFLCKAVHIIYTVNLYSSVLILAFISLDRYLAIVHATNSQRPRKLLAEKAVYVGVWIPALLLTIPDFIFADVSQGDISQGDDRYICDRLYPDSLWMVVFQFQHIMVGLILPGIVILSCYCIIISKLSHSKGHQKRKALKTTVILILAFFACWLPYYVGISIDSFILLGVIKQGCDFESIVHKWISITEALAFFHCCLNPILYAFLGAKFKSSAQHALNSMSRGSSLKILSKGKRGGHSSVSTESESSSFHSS

## CN1C(=O)[C@@H](Cc2ccc(O)c(I)c2)NC(=O)CNC(=O)[C@H](Cc2ccc3ccccc3c2)NC(=O)[C@H](CCCNC(=N)N)NC(=O)[C@H]1CCCNC(=O)c1ccc(-n2cc(C[N+](C)(C)C[B-](F)(F)F)nn2)cc1 [F1, cyclo[i-yorn′(AMBF3(methyl(1H-1,2,3-triazol-4-yl)4-amino)benzoyl-)RNaIG]] (cyclo([2Nal]G[dTyr(3-I)][dNMeOrn](X4)R))
Human CXCR4; [2]
  IC50: 134 ± 47 nM

## CC(C)[C@H](C(=O)NCC(=O)Nc1ccc(C(=O)NCCC[C@@H]2C(=O)N[C@@H](CCCNC(=N)N)C(=O)N[C@@H](Cc3ccc4ccccc4c3)C(=O)NCC(=O)N[C@H](Cc3ccc(O)c(I)c3)C(=O)N2C)cc1)n1cc(C[N+](C)(C)C[B-](F)(F)F)nn1 [F2, cyclo[i-yorn′(AMBF3(methyl(1H-1,2,3-triazol-4-yl)-vG-4-amino)benzoyl-)RNaIG]] (cyclo([2Nal]G[dTyr(3-I)][dNMeOrn]([4Abz-Gly-X5])R))
Human CXCR4; [2]
  IC50: 65.2 ± 10 nM

## CN1C(=O)[C@@H](Cc2ccc(O)cc2)NC(=O)CNC(=O)[C@H](Cc2ccc3ccccc3c2)NC(=O)[C@H](CCCNC(=N)N)NC(=O)[C@H]1CCCNC(=O)c1ccc(NC(=O)CNC(=O)[C@H](CCCNC(=N)N)n2cc(C[N+](C)(C)C[B-](F)(F)F)nn2)cc1 [F3b, cyclo[-yorn′(AMBF3(methyl(1H-1,2,3-triazol-4-yl)-rG-4-amino)benzoyl-)RNaIG]] (cyclo([2Nal]G[dY][dNMeOrn]([4Abz-Gly-X3])R))
Human CXCR4; [2]
  IC50: 2.4 ± 0.8 nM

## CN1C(=O)[C@@H](Cc2ccc(O)c(I)c2)NC(=O)CNC(=O)[C@H](Cc2ccc3ccccc3c2)NC(=O)[C@H](CCCNC(=N)N)NC(=O)[C@H]1CCCNC(=O)c1ccc(NC(=O)CNC(=O)[C@H](CCCCN)n2cc(C[N+](C)(C)C[B-](F)(F)F)nn2)cc1 [F4, cyclo[i-yorn′(AMBF3(methyl(1H-1,2,3-triazol-4-yl)-kG-4-amino)benzoyl-)RNaIG]] (cyclo([2Nal]G[dTyr(3-I)][dNMeOrn]([4Abz-Gly-X2])R))
Human CXCR4; [2]
  IC50: 3.8 ± 0.9 nM

## CC(=O)c1ccc(NC(=O)[C@@H](C)NC(=O)[C@@H](CCCNC(=N)N)NC(=O)[C@@H](CNC(=O)CO/N=C\c2ccc(F)cc2)NC(=O)CCS[C@H]2OC(CO)[C@@H](O[C@@H]3OC(CO)[C@@H](O)C(O)C3O)C(O)C2O)cc1 (some centres unmarked) [F5]
Human CXCR4; [3]
  IC50: 4.6 ± 0.7 nM

## CN1C(=O)[C@H](Cc2ccc(O)c(I)c2)NC(=O)CNC(=O)[C@@H](Cc2ccc3ccccc3c2)NC(=O)[C@@H](CCCNC(=N)N)NC(=O)[C@@H]1CCCNC(=O)c1ccc(NC(=O)[C@@H](CC(=O)O)NC(=O)CN2CCN(CC(=O)O)CCN(CC(=O)O)CCN(CC(=O)O)CC2)cc1 [P1]
Human CXCR4; [4]
  IC50: 106 ± 10 nM
Human CXCR4; [5]
  IC50: 106 ± 10 nM

## CN1C(=O)[C@@H](Cc2ccc(O)c(I)c2)NC(=O)CNC(=O)[C@H](Cc2ccc3ccccc3c2)NC(=O)[C@H](CCCNC(=N)N)NC(=O)[C@H]1CCCNC(=O)c1ccc(NC(=O)CNC(=O)[C@H](CN)NC(=O)CN2CCN(CC(=O)O)CCN(CC(=O)O)CCN(CC(=O)O)CC2)cc1 [P2] (cyclo([2Nal]G[dTyr(3-I)][dNMeOrn]([4Abz-Gly-Dap-DOTA])R))
Human CXCR4; [6]
  IC50: 3.6 ± 0.7 nM
Human CXCR4; [7]
  IC50: 4.1 ± 1.3 nM
Human CXCR4; [8]
  IC50: 3.6 ± 0.7 nM

## CN1C(=O)[C@@H](Cc2ccc(O)c(I)c2)NC(=O)CNC(=O)[C@H](Cc2ccc3ccccc3c2)NC(=O)[C@H](CCCNC(=N)N)NC(=O)C1CCCNC(=O)c1ccc(NC(=O)CNC(=O)[C@H](CCCCN)NC(=O)CN2CCN(CC(=O)O)CCN(CC(=O)O)CCN(CC(=O)O)CC2)cc1 (stereo partly drawn) [P3] (cyclo([2Nal]G[dTyr(3-I)][ξNMeOrn]([4Abz-Gly-Lys-DOTA])R))
Human CXCR4; Table 1b, ^natBi metal complexes, Jurkat cells, [^125I]FC-131, read-out: IC50 [nM] to hCXCR4 [^natBi]
  IC50: 38 ± 25 nM
Human CXCR4; [6]
  IC50: 2.4 ± 0.1 nM
Human CXCR4; [4]
  IC50: 3.6 ± 1.1 nM
Human CXCR4; [7]
  IC50: 2.4 ± 0.2 nM
Human CXCR4; [8]
  IC50: 2.4 ± 0.1 nM
Human CXCR4; [5]
  IC50: 3.6 ± 1.1 nM

## CN1C(=O)[C@@H](Cc2ccc(O)cc2)NC(=O)CNC(=O)[C@H](Cc2ccc3ccccc3c2)NC(=O)[C@H](CCCNC(=N)N)NC(=O)C1CCCNC(=O)c1ccc(NC(=O)CNC(=O)[C@H](CCCCN)NC(=O)CN2CCN(CC(=O)O)CCN(CC(=O)O)CCN(CC(=O)O)CC2)cc1 (stereo partly drawn) [P3b] (cyclo([2Nal]G[dY][ξNMeOrn]([4Abz-Gly-Lys-DOTA])R))
Human CXCR4; [6]
  IC50: 8.9 ± 3.8 nM
Human CXCR4; [4]
  IC50: 8 ± 3.1 nM
Human CXCR4; [7]
  IC50: 6.3 ± 2.5 nM
Human CXCR4; [8]
  IC50: 8.9 ± 3.8 nM
Human CXCR4; [5]
  IC50: 8 ± 3.1 nM

## CC(=O)c1ccc(NC(=O)[C@@H](C)NC(=O)[C@@H](CCCNC(=N)N)NC(=O)[C@@H](CO)NC(=O)[C@@H](CO)NC(=O)[C@@H](CO)NC(=O)CS)cc1 [T1] (Mercaptoacetyl-[dS][dS][dS][dR][dA]-X6)
Human CXCR4; [3]
  IC50: 22.9 ± 3.9 nM

## C[C@@H](NC(=O)[C@@H](CCCNC(=N)N)NC(=O)[C@H](CC(=O)O)NC(=O)[C@H](CC(=O)O)NC(=O)[C@H](CC(=O)O)NC(=O)CS)C(=O)Nc1ccc(C(=O)O)cc1 [T2] (Mercaptoacetyl-DDD[dR][dA][4Abz]-OH)
Human CXCR4; [3]
  IC50: 85.7 ± 5.1 nM
[1]
  logP: −2.2

## C[C@@H](NC(=O)[C@@H](CCCNC(=N)N)NC(=O)[C@H](CN)NC(=O)[C@H](CN)NC(=O)[C@H](CN)NC(=O)CS)C(=O)Nc1ccc(C(=O)O)cc1 [T3] (Mercaptoacetyl-[Dap][Dap][Dap][dR][dA][4Abz]-OH)
Human CXCR4; [3]
  IC50: 18.8 ± 8.5 nM
[1]
  logP: −1.5

## C[C@@H](NC(=O)[C@@H](CCCNC(=N)N)NC(=O)[C@H](CO)NC(=O)[C@H](COP(=O)(O)O)NC(=O)[C@H](CO[C@H]1OC(CO)[C@H](O)C(O)C1O)NC(=O)CS)C(=O)Nc1ccc(C(=O)O)cc1 (some centres unmarked) [T4] (Mercaptoacetyl-S(X1)[pS]S[dR][dA][4Abz]-OH)
Human CXCR4; [3]
  IC50: 213 ± 22 nM
[1]
  logP: −2.2

## CN1C(=O)[C@@H](Cc2ccc(O)cc2)NC(=O)CNC(=O)[C@H](Cc2ccc3ccccc3c2)NC(=O)[C@H](CCCNC(=N)N)NC(=O)[C@H]1CCCNC(=O)c1ccc(CNC(=O)CN2CCN(CC(=O)O)CCN(CC(=O)O)CCN(CC(=O)O)CC2)cc1 [compound 3, cyclo(D-Tyr^1-D-[NMe]Orn^2(AMBS-DOTA)-Arg^3-Nal^4-Gly^5), reference compound] (cyclo([dY][dNMeOrn]([4Amb-DOTA])R[2Nal]G))
Murine CXCR4
  IC50: > 1000 nM

## cyclo[i-yorn′(DOTA-ra-(4-amino)benzoyl-)RNaIG [P5]
Human CXCR4; hCXCR4
  increase in affinity compared to P2: almost two-fold

## cyclo[i-yorn′([^natLu]DOTA-dapG-(4-amino)benzoyl-)RNaIG [^natLu-P2]
Human CXCR4; hCXCR4, versus ligand with glycine linker only
  improvement of binding affinity by insertion of cationic amino acids in the linker: almost two-fold

## cyclo[i-yorn′([^natLu]DOTA-rG-(4-amino)benzoyl-)RNaIG [^natLu-P4]
Murine CXCR4; ^natLu complexes, Eμ-Myc1080 mouse B-cell lymphoma cells, [^125I]CPCR4.3, mean ± SD (n = 3)
  mIC50[nM] ^natLu complexes and murine CXCR4: 37.1 ± 2.9 nM
